Experimental data: patent US6462173B1, “Inhibitors of phosphoserine and phosphothreonine-proline-specific isomerases” (Max-Planck-Gesellschaft zur Forderung der, priority 1997, dated 2002)

Tests used:
[1] = test system: Xenopus embryos; test: Microinjection of Xenopus embryos, cell cycle block; type: in vivo
Protocol: Unfertilized eggs were incubated with sperm, dejellied, and 4 μM of the indicated protein (about 10 fold above the estimated endogenous levels) was injected in one cell of two cell stage embryos (30 embryos each protein). The injected embryos were allowed to develop at 18° C. to stage 8 and pictures were taken of typical embryos. The titration of Pin1 and the mutants was essentially as described above except that the indicated protein was injected into one cell of 4 cell stage (18 embryos each Pin1 concentration) to the indicated final concentration and allowed to develop for 3h. […] To be consistent, cell cycle blocked embryo's were scored as those that contained at least one cell on the injected side that was greater than 5 times larger than uninjected cells (FIG. 2).
To examine whether increasing the concentration of Pin1 has similar biological effects in Xenopus, Pin1 or Pin1 mutants were injected into one cell of 2 cell stage embryos and allowed the embryos to develop for 3 h (about 5 divisions). […] In contrast, the same extracts containing 40 μM of either BSA or the mutant Pin1 proteins entered mitosis by 70 to 80 min as detected by nuclear envelope breakdown, spindle formation and high histone H1 kinase activity. […]

[2] = biological target: T1, mitotic GST-Cdc25 (Xenopus laevis, UniProt P30309); test: Cdc25 activity assay (activation of cyclin B/Cdc2, H1 kinase); type: biochemical; details: 0.67 μM protein, 1 μM mitotic Cdc25
T1 construct: made in house
T1 sequence (P30309 1-550): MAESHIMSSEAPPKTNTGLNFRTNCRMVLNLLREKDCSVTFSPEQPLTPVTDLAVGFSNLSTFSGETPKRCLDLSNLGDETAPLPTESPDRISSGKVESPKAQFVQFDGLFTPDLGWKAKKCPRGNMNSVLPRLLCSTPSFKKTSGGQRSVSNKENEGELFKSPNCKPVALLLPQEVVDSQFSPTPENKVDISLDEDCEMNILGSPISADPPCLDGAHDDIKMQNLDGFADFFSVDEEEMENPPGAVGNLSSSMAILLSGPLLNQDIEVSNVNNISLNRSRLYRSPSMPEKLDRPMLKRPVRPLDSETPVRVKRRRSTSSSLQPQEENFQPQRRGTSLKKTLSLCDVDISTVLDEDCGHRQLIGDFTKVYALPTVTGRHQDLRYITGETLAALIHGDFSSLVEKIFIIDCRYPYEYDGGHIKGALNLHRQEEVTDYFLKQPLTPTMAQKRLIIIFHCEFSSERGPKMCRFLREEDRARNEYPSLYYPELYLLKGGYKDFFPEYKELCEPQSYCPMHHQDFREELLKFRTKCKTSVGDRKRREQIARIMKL
Protocol: Cdc2 was assayed using histone H1 as a substrate, as previously described in Murray, 1991; Lu and Hunter, (1995).
A subthreshold concentration of GST cyclin B (10 μg) was added to 1 ml of Xenopus interphase extract for thirty min at room temperature (Solomon, M. J., M. Glotzer, T. H. Lee, M. Philippe and M. W. Kirschner, Cell 63:1013-1024 (1990). This was diluted 8 fold in XB+3 mM DTT, rotated for 1 h with 3 ml of GST agarose beads, washed 3 times in XBIP (XB+500 mM NaCl and 1% NP40+2 mM DTT), washed 2 times (once overnight) in EB (80 mM β glycerol phosphate, 15 mM EGTA, 15 mM MgCl2)+2 mM DTT, 500 mM NaCl and 1% NP40, and finally twice with EB+10 mM DTT. These Cdc25 assay beads were stored at 4° C. for up to 1 month. Mitotic GST-Cdc25 was purified by incubating 22 μg of GST-Cdc25, in a Xenopus mitotic extract for 30 min at 23° C., this was diluted 8 fold in XB and rotated with 50 μl of glutathione-Agarose beads (Sigma) for 1 hr at 4° C. The beads were washed 5 times in XB-IP, twice in XB+2 mM DTT and eluted in 25 μl XB+2 mM reduced GSH. The final concentration of Mitotic GST-Cdc25 was 0.36 mg/ml. […] Phosphoimager analysis of the H1 kinase assays were quantified by the Molecular Dynamics ImageQuant 3.3 software. […] The most reproducible way to quantify the Cdc25 activity in this assay was by determining the endpoint dilution of Cdc25 which could activate Cdc2. […]

Q: How did the “cleavage of injected cells” value ([1]; 4 μM final, one cell of 2 cell stage embryos, 3 h) turn out when “Pin1: essential mitotic peptidyl-prolyl cis-trans isomerase, recombinant protein” was run?
A: failed to cleave or cleaved slowly

Q: And the “inhibition of the cell cycle” value ([1]; 10 μM, approximately 20 fold above estimated endogenous levels)?
A: completely inhibited the cell cycle

Q: What about the “effect on Cdc25 activity” value [2] of the same substance?
A: mitotic Cdc25 failed to activate the Cdc2 complex
